# From ChEMBL document CHEMBL3045199, “Synthesis of some (E)-6-[2-(furan-2-yl)ethenyl]-1,2,4-triazin-5-ones and their biological evaluation as antitumor agents” (2013)
# Legend:
# Type in all cases: functional
# [1] = test system: A498; assay: Cytotoxicity against Homo sapiens (human) A498 cells assessed as growth inhibition at 10 uM after 24 hr; conditions: A498, 24 h, read-out: GI
# [2] = test system: KM12; assay: Cytotoxicity against Homo sapiens (human) KM12 cells after 48 hr by SRB assay; conditions: KM12, 48 h
# [3] = test system: HCT-116; assay: Cytotoxicity against Homo sapiens (human) HCT116 cells assessed as growth inhibition at 10 uM after 24 hr; conditions: HCT-116, 24 h, read-out: GI
# [4] = test system: Malme-3M; assay: Cytotoxicity against Homo sapiens (human) MALME-3M cells after 48 hr by SRB assay
# [5] = test system: T47D; assay: Cytotoxicity against Homo sapiens (human) T47D cells assessed as growth inhibition at 10 uM after 24 hr; conditions: read-out: GI
# [6] = test system: HCT-116; assay: Cytotoxicity against Homo sapiens (human) HCT116 cells after 48 hr by SRB assay; conditions: HCT-116, 48 h
# [7] = test system: HCT-15; assay: Cytotoxicity against Homo sapiens (human) HCT15 cells assessed as growth inhibition at 10 uM after 24 hr; conditions: HCT-15, 24 h, read-out: GI
# [8] = test system: COLO 205; assay: Cytotoxicity against Homo sapiens (human) COLO205 cells after 48 hr by SRB assay; conditions: COLO 205, 48 h
# [9] = test system: DU-145; assay: Cytotoxicity against Homo sapiens (human) DU145 cells assessed as growth inhibition at 10 uM after 24 hr; conditions: DU-145, 24 h, read-out: GI
# [10] = test system: MDA-MB-435; assay: Cytotoxicity against Homo sapiens (human) MDA-MB-435 cells after 48 hr by SRB assay; conditions: MDA-MB-435, 48 h
# [11] = test system: SK-OV-3; assay: Cytotoxicity against Homo sapiens (human) SKOV3 cells after 48 hr by SRB assay; conditions: SK-OV-3, 48 h
# [12] = test system: CCRF-CEM; assay: Cytotoxicity against Homo sapiens (human) CCRF-CEM cells after 48 hr by SRB assay
# [13] = test system: UACC-62; assay: Cytotoxicity against Homo sapiens (human) UACC62 cells after 48 hr by SRB assay; conditions: UACC-62, 48 h
# [14] = test system: UACC-62; assay: Cytotoxicity against Homo sapiens (human) UACC62 cells assessed as growth inhibition at 10 uM after 24 hr; conditions: UACC-62, 24 h, read-out: GI
# [15] = test system: SF-539; assay: Cytotoxicity against Homo sapiens (human) SF539 cells assessed as growth inhibition at 10 uM after 24 hr; conditions: SF-539, 24 h, read-out: GI
# [16] = test system: SF-268; assay: Cytotoxicity against Homo sapiens (human) SF268 cells assessed as growth inhibition at 10 uM after 24 hr; conditions: SF-268, 24 h, read-out: GI
# [17] = test system: BT-549; assay: Cytotoxicity against Homo sapiens (human) BT549 cells after 48 hr by SRB assay; conditions: BT-549, 48 h
# [18] = test system: NCI-H460; assay: Cytotoxicity against Homo sapiens (human) NCI-H460 cells assessed as growth inhibition at 10 uM after 24 hr; conditions: NCI-H460, 24 h, read-out: GI
# [19] = test system: UO-31; assay: Cytotoxicity against Homo sapiens (human) UO31 cells after 48 hr by SRB assay; conditions: UO-31, 48 h
# [20] = test system: SF-295; assay: Cytotoxicity against Homo sapiens (human) SF295 cells assessed as growth inhibition at 10 uM after 24 hr; conditions: SF-295, 24 h, read-out: GI
# [21] = test system: U-251; assay: Cytotoxicity against Homo sapiens (human) U251 cells after 48 hr by SRB assay; conditions: U-251, 48 h
# [22] = test system: SNB-19; assay: Cytotoxicity against Homo sapiens (human) SNB19 cells after 48 hr by SRB assay; conditions: SNB-19, 48 h
# [23] = test system: NCI-H322M; assay: Cytotoxicity against Homo sapiens (human) NCI-H322M cells after 48 hr by SRB assay
# [24] = test system: OVCAR-3; assay: Cytotoxicity against Homo sapiens (human) OVCAR3 cells assessed as growth inhibition at 10 uM after 24 hr; conditions: OVCAR-3, 24 h, read-out: GI
# [25] = test system: A549; assay: Cytotoxicity against Homo sapiens (human) A549 cells after 48 hr by SRB assay; conditions: A549, 48 h
# [26] = test system: LOX IMVI; assay: Cytotoxicity against Homo sapiens (human) LOXIMVI cells after 48 hr by SRB assay
# [27] = test system: RXF 393; assay: Cytotoxicity against Homo sapiens (human) RXF393 cells after 48 hr by SRB assay; conditions: RXF 393, 48 h
# [28] = test system: HOP-92; assay: Cytotoxicity against Homo sapiens (human) HOP92 cells after 48 hr by SRB assay; conditions: HOP-92, 48 h
# [29] = test system: UACC-257; assay: Cytotoxicity against Homo sapiens (human) UACC257 cells after 48 hr by SRB assay; conditions: UACC-257, 48 h
# [30] = test system: SNB-75; assay: Cytotoxicity against Homo sapiens (human) SNB75 cells assessed as growth inhibition at 10 uM after 24 hr; conditions: SNB-75, 24 h, read-out: GI
# [31] = test system: OVCAR-4; assay: Cytotoxicity against Homo sapiens (human) OVCAR4 cells assessed as growth inhibition at 10 uM after 24 hr; conditions: OVCAR-4, 24 h, read-out: GI
# [32] = test system: TK-10; assay: Cytotoxicity against Homo sapiens (human) TK10 cells after 48 hr by SRB assay; conditions: TK-10, 48 h
# [33] = test system: Hs-578T; assay: Cytotoxicity against Homo sapiens (human) Hs 578T cells after 48 hr by SRB assay
# [34] = test system: ACHN; assay: Cytotoxicity against Homo sapiens (human) ACHN cells after 48 hr by SRB assay
# [35] = test system: PC-3; assay: Cytotoxicity against Homo sapiens (human) PC3 cells after 48 hr by SRB assay; conditions: PC-3, 48 h
# [36] = test system: NCI-H522; assay: Cytotoxicity against Homo sapiens (human) NCI-H522 cells after 48 hr by SRB assay; conditions: NCI-H522, 48 h
# [37] = read-out: LC50 (the source's name)
structure (smiles),measurement,setting,value
Nc1cc(-c2ccc(Cl)cc2)nn1-c1nc(=O)c(/C=C/c2ccco2)n[nH]1,inhibition of growth at 10 µM,[1],66.2%
same,TGI,[2],32 µM
same,GI50,[2]; read-out: GI50,3.19 µM
same,CC50,[2]; [37],> 100 µM
same,GI50,[2]; read-out: pGI50 (converted),3.16 µM
same,inhibition of growth at 10 µM,[3],59%
same,LC50,[4],> 100 µM
same,TGI,[4],53.1 µM
same,GI50,[4]; read-out: GI50,11 µM
same,GI50,[4]; read-out: pGI50 (converted),11 µM
same,inhibition of growth at 10 µM,[5],37.3%
same,TGI,[6],15.6 µM
same,GI50,[6]; read-out: GI50,2.92 µM
same,CC50,[6]; [37],> 100 µM
same,GI50,[6]; read-out: pGI50 (converted),2.88 µM
same,inhibition of growth at 10 µM,[7],61.9%
same,TGI,[8],18.4 µM
same,GI50,[8]; read-out: GI50,3.44 µM
same,CC50,[8]; [37],> 100 µM
same,GI50,[8]; read-out: pGI50 (converted),3.47 µM
same,inhibition of growth at 10 µM,[9],36.7%
same,GI50,[10],5.22 µM
same,TGI,[10],> 100 µM
same,CC50,[10]; [37],> 100 µM
same,LC50,[11],> 100 µM
same,TGI,[11],7.43 µM
same,GI50,[11]; read-out: GI50,5.58 µM
same,GI50,[11]; read-out: pGI50 (converted),5.62 µM
same,LC50,[12],> 100 µM
same,TGI,[12],16.8 µM
same,GI50,[12]; read-out: GI50,2.88 µM
same,GI50,[12]; read-out: pGI50 (converted),2.88 µM
same,LC50 (concentration killing 50% of cells),[13],> 100 µM
same,TGI,[13],> 100 µM
same,GI50,[13]; read-out: GI50,5.07 µM
same,GI50,[13]; read-out: pGI50 (converted),5.01 µM
same,inhibition of growth at 10 µM,[14],47.5%
same,inhibition of growth at 10 µM,[15],44.6%
same,inhibition of growth at 10 µM,[16],47.5%
same,TGI,[17],43.8 µM
same,GI50,[17]; read-out: GI50,4.42 µM
same,CC50,[17]; [37],> 100 µM
same,GI50,[17]; read-out: pGI50 (converted),4.47 µM
same,inhibition of growth at 10 µM,[18],79.6%
same,TGI,[19],13.7 µM
same,GI50,[19]; read-out: GI50,1.63 µM
same,CC50,[19]; [37],> 100 µM
same,GI50,[19]; read-out: pGI50 (converted),1.62 µM
same,inhibition of growth at 10 µM,[20],90.1%
same,TGI,[21],84.8 µM
same,GI50,[21]; read-out: GI50,4.47 µM
same,CC50,[21]; [37],> 100 µM
same,GI50,[21]; read-out: pGI50 (converted),4.47 µM
same,TGI,[22],69.4 µM
same,GI50,[22]; read-out: GI50,5.81 µM
same,CC50,[22]; [37],> 100 µM
same,GI50,[22]; read-out: pGI50 (converted),5.75 µM
same,TGI,[23],38.2 µM
same,GI50,[23]; read-out: GI50,1.47 µM
same,CC50,[23]; [37],> 100 µM
same,GI50,[23]; read-out: pGI50 (converted),1.48 µM
same,inhibition of growth at 10 µM,[24],62.1%
same,LC50,[25],> 100 µM
same,TGI,[25],34.2 µM
same,GI50,[25]; read-out: GI50,3.48 µM
same,GI50,[25]; read-out: pGI50 (converted),3.47 µM
same,TGI,[26],73.4 µM
same,GI50,[26]; read-out: GI50,6.69 µM
same,CC50,[26]; [37],> 100 µM
same,GI50,[26]; read-out: pGI50 (converted),6.76 µM
same,LC50,[27],> 100 µM
same,TGI,[27],54.9 µM
same,GI50,[27]; read-out: GI50,13.1 µM
same,GI50,[27]; read-out: pGI50 (converted),13.2 µM
same,LC50,[28],> 100 µM
same,TGI,[28],9.28 µM
same,GI50,[28]; read-out: GI50,1.61 µM
same,GI50,[28]; read-out: pGI50 (converted),1.62 µM
same,LC50,[29],> 100 µM
same,TGI,[29],71.8 µM
same,GI50,[29]; read-out: GI50,6.59 µM
same,GI50,[29]; read-out: pGI50 (converted),6.61 µM
same,inhibition of growth at 10 µM,[30],32.6%
same,inhibition of growth at 10 µM,[31],70.9%
same,LC50,[32],> 100 µM
same,TGI,[32],23.1 µM
same,GI50,[32]; read-out: GI50,3.64 µM
same,GI50,[32]; read-out: pGI50 (converted),3.63 µM
same,GI50,[33],8.51 µM
same,LC50,[34],> 100 µM
same,TGI,[34],24.8 µM
same,GI50,[34]; read-out: GI50,3.8 µM
same,GI50,[34]; read-out: pGI50 (converted),3.8 µM
same,LC50 (50% lethal concentration),[35],> 100 µM
same,TGI,[35],56.2 µM
same,GI50,[35]; read-out: GI50,5.6 µM
same,GI50,[35]; read-out: pGI50 (converted),5.62 µM
same,TGI,[36],36.8 µM
same,GI50,[36]; read-out: GI50,5.12 µM
same,CC50,[36]; [37],> 100 µM
same,GI50,[36]; read-out: pGI50 (converted),5.13 µM
O=c1[nH]cc(F)c(=O)[nH]1 [FLUOROURACIL],GI50,[2]; read-out: pGI50 (converted),10 µM
same,GI50,[4]; read-out: pGI50 (converted),20 µM
same,GI50,[6]; read-out: pGI50 (converted),3.98 µM
same,GI50,[8]; read-out: pGI50 (converted),6.31 µM
same,GI50,[11]; read-out: pGI50 (converted),158 µM
same,GI50,[12]; read-out: pGI50 (converted),31.6 µM
same,GI50,[13]; read-out: pGI50 (converted),12.6 µM
same,GI50,[17]; read-out: pGI50 (converted),100 µM
same,GI50,[19]; read-out: pGI50 (converted),5.01 µM
same,GI50,[21]; read-out: pGI50 (converted),39.8 µM
same,GI50,[22]; read-out: pGI50 (converted),126 µM
same,GI50,[23]; read-out: pGI50 (converted),20 µM
same,GI50,[25]; read-out: pGI50 (converted),2 µM
same,GI50,[26]; read-out: pGI50 (converted),6.31 µM
same,GI50,[27]; read-out: pGI50 (converted),50.1 µM
same,GI50,[28]; read-out: pGI50 (converted),158 µM
same,GI50,[29]; read-out: pGI50 (converted),100 µM
same,GI50,[32]; read-out: pGI50 (converted),126 µM
same,GI50,[33],251 µM
same,GI50,[34]; read-out: pGI50 (converted),10 µM
same,GI50,[35]; read-out: pGI50 (converted),50.1 µM
same,GI50,[36]; read-out: pGI50 (converted),39.8 µM
